Reference: patent US10604554B2, “Double-acylated GLP-1 derivatives” (Novo Nordisk A/S, priority 2012, dated 2020)
pEC50, pIC50: −log10 of the molar value.

Legend:
[1] = target: T1, human GLP-1 receptor (Homo sapiens, UniProt P43220); assay: In vitro potency (CRE luciferase; whole cells); assay type: cell-based; design: EC50/pM (ratio 1% HSA/0% HSA): unit not given here; details: for pEC50: BHK cells; for EC50/pM (ratio 1% HSA/0% HSA): ratio of EC50 at 1% HSA to EC50 at 0% HSA
T1 construct: expressed in transfected cells; host or cells: BHK cells, clone FCW467-12A/KZ10-1 (parent line BHKTS13), further transfected with CRE luciferase
Method in brief: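 Reporter: CRE-luciferase in BHK cells stably expressing human GLP-1R, 5×10^3 cells/well; compounds tested in buffer containing 0% or 1% HSA.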

[2] = Pharmacokinetic (PK) study in minipig; details: male, Göttingen, in vivo, iv
Protocol: The purpose of this study is to determine the protraction in vivo of the GLP-1 derivatives after i.v. administration to minipigs, i.e. the prolongation of their time of action. This is done in a pharmacokinetic (PK) study, where the terminal half-life of the derivative in question is determined. By terminal half-life is generally meant the period of time it takes to halve a certain plasma concentration, measured after the initial distribution phase.
Study A: Male Göttingen minipigs were obtained from Ellegaard Göttingen Minipigs (Dalmose, Denmark) approximately 7-14 months of age and weighing from approximately 16-35 kg were used in the studies. The minipigs were housed individually and fed restrictedly once or twice daily with SDS minipig diet (Special Diets Services, Essex, UK). After at least 2 weeks of acclimatisation two permanent central venous catheters were implanted in vena cava caudalis or cranialis in each animal. The animals were allowed 1 week recovery after the surgery, and were then used for repeated pharmacokinetic studies with a suitable wash-out period between successive GLP-1 derivative dosings.
The animals were fasted for approximately 18 h before dosing and from 0 to 4 h after dosing, but had ad libitum access to water during the whole period.
The GLP-1 derivatives were dissolved in 50 mM sodium phosphate, 145 mM sodium chloride, 0.05% tween 80, pH 7.4 to a concentration of usually from 20-60 nmol/ml. […] Blood samples (for example 0.8 ml) were collected in EDTA buffer (8 mM) and then centrifuged at 4° C. and 1942 G for 10 minutes.
Study B: Male Göttingen minipigs were obtained from Ellegaard Göttingen Minipigs (Dalmose, Denmark) approximately 5 months of age and weighing from approximately 9 kg were used in the studies. The minipigs were housed in pens with straw as bedding, six together in each pen and fed restrictedly once or twice daily with Altromin 9023 minipig diet (Chr. Petersen A/S, DK-4100 Ringsted) or Standard SMP(E) minipig diet (Special Diet Services (SDS), UK). The pigs were used for repeated pharmacokinetic studies with a suitable wash-out period between successive GLP-1 derivative dosings.
The GLP-1 derivatives were dissolved in 50 mM sodium phosphate, 145 mM sodium chloride, 0.05% tween 80, pH 7.4 to a concentration of usually from 20-60 nmol/ml. Intravenous injections (the volume corresponding to usually 2 nmol/kg, for example 0.1 ml/kg) of the compounds were given as intravenous injections via a Venflon inserted in an ear vein, while they are placed unanaesthetised in a sling. The dose volume was 0.1 ml/kg, and blood was sampled at predefined time points for up till 17 days post dosing (samples was taken with syringe from a jugular vein).
Individual plasma concentration-time profiles were analyzed by a non-compartmental model in Phoenix WinNonLin ver. […] (Pharsight Inc., Mountain View, Calif., USA), and the resulting terminal half-lives (harmonic mean) determined.

[3] = Pharmacokinetic (PK) study in rat; details: male, Sprague Dawley, in vivo, iv, 6 nmol/kg
[4] = target: T1, human GLP-1 receptor; assay: GLP-1 receptor binding (SPA, displacement of 125I-GLP-1)
Method in brief: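 Tracer [125I]-GLP-1(7-36)NH2 at 0.06 nM final competed on hamster stably transfected cell membranes captured by WGA SPA beads; 120 min, 30 °C, scintillation count.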

[5] = In vitro potency (CRE luciferase) EC50 (1% HSA), 1% HSA
[6] = Receptor binding affinity IC50 (high HSA), 2.0% HSA (high albumin)
[7] = Receptor binding affinity IC50 (low HSA), 0.001% HSA (low albumin)
[8] = In vitro potency (CRE luciferase) EC50 (0% HSA), 0% HSA

T1 sequence (P43220 24-463): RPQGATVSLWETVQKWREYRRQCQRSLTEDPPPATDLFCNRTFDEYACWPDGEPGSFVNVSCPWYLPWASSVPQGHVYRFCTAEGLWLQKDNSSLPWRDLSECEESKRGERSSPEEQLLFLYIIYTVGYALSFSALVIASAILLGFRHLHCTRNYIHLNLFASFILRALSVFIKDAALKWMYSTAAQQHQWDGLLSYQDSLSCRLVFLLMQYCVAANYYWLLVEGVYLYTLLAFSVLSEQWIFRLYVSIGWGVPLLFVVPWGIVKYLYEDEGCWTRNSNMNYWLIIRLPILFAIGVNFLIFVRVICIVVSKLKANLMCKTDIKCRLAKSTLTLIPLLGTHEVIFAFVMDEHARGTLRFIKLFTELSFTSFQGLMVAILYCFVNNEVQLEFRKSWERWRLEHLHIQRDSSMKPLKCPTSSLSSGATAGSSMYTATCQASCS

Row | SMILES | pEC50 [1, 5] | half-life [2] [h] | half-life [3] [h] | pIC50 [4, 6] | pIC50 [4, 7] | pEC50 [1, 8] | EC50/pM (ratio 1% HSA/0% HSA) [1]
1 | CC[C@H](C)[C@H](NC(=O)[C@H](Cc1ccccc1)NC(=O)[C@H](CCC(=O)O)NC(=O)[C@H](CCCCNC(=O)[C@@H](N)CCCCNC(=O)[C@@H](N)CCCCNC(=O)CC[C@H](NC(=O)CCCCCCCCCCCOc1ccc(C(=O)O)cc1)C(=O)O)NC(=O)[C@H](C)NC(=O)[C@H](C)NC(=O)[C@H](CCC(N)=O)NC(=O)CNC(=O)[C@H](CCC(=O)O)NC(=O)[C@H](CC(C)C)NC(=O)[C@H](Cc1ccc(O)cc1)NC(=O)[C@H](CO)NC(=O)[C@H](CO)NC(=O)[C@@H](NC(=O)[C@H](CC(=O)O)NC(=O)[C@H](CO)NC(=O)[C@@H](NC(=O)[C@H](Cc1ccccc1)NC(=O)[C@@H](NC(=O)CNC(=O)[C@H](CCC(=O)O)NC(=O)C(C)(C)NC(=O)[C@@H](N)Cc1c[nH]cn1)[C@@H](C)O)[C@@H](C)O)C(C)C)C(=O)N[C@@H](C)C(=O)N[C@@H](Cc1c[nH]c2ccccc12)C(=O)N[C@@H](CC(C)C)C(=O)N[C@H](C(=O)N[C@@H](CCCNC(=N)N)C(=O)NCC(=O)N[C@@H](CCCNC(=N)N)C(=O)N[C@@H](CCCCNC(=O)[C@@H](N)CCCCNC(=O)[C@@H](N)CCCCNC(=O)CC[C@H](NC(=O)CCCCCCCCCCCOc1ccc(C(=O)O)cc1)C(=O)O)C(=O)O)C(C)C [Example 7, N^ε26-[(2S)-2-amino-6-[[(2S)-2-amino-6-[[(4S)-4-carboxy-4-[12-(4-carboxyphenoxy)dodecanoylamino]butanoyl]amino]hexanoyl]amino]hexanoyl], N^ε37-[(2S)-2-amino-6-[[(2S)-2-amino-6-[[(4S)-4-carboxy-4-[12-(4-carboxyphenoxy)dodecanoylamino]butanoyl]amino]hexanoyl]amino]hexanoyl]-[Aib^8,Arg^34,Lys^37]-GLP-1-(7-37)-peptide] | 10.02 | 69 | 17 | 6.97 | 9.89 | – | –
2 | CC[C@H](C)[C@H](NC(=O)[C@H](Cc1ccccc1)NC(=O)[C@H](CCC(=O)O)NC(=O)[C@H](CCCCNC(=O)[C@@H](N)CCCCNC(=O)COCCOCCNC(=O)COCCOCCNC(=O)CC[C@H](NC(=O)CCCCCCCCCCCOc1ccc(C(=O)O)cc1)C(=O)O)NC(=O)[C@H](C)NC(=O)[C@H](C)NC(=O)[C@H](CCC(N)=O)NC(=O)CNC(=O)[C@H](CCC(=O)O)NC(=O)[C@H](CC(C)C)NC(=O)[C@H](Cc1ccc(O)cc1)NC(=O)[C@H](CO)NC(=O)[C@H](CO)NC(=O)[C@@H](NC(=O)[C@H](CC(=O)O)NC(=O)[C@H](CO)NC(=O)[C@@H](NC(=O)[C@H](Cc1ccccc1)NC(=O)[C@@H](NC(=O)CNC(=O)[C@H](CCC(=O)O)NC(=O)C(C)(C)NC(=O)[C@@H](N)Cc1c[nH]cn1)[C@@H](C)O)[C@@H](C)O)C(C)C)C(=O)N[C@@H](C)C(=O)N[C@@H](Cc1c[nH]c2ccccc12)C(=O)N[C@@H](CC(C)C)C(=O)N[C@H](C(=O)N[C@@H](CCCNC(=N)N)C(=O)NCC(=O)N[C@@H](CCCNC(=N)N)C(=O)N[C@@H](CCCCNC(=O)[C@@H](N)CCCCNC(=O)COCCOCCNC(=O)COCCOCCNC(=O)CC[C@H](NC(=O)CCCCCCCCCCCOc1ccc(C(=O)O)cc1)C(=O)O)C(=O)O)C(C)C [Example 14, N^ε26-[(2S)-2-amino-6-[[2-[2-[2-[[2-[2-[2-[[(4S)-4-carboxy-4-[12-(4-carboxyphenoxy)dodecanoylamino]butanoyl]amino]ethoxy]ethoxy]acetyl]amino]ethoxy]ethoxy]acetyl]amino]hexanoyl], N^ε37-[(2S)-2-amino-6-[[2-[2-[2-[[2-[2-[2-[[(4S)-4-carboxy-4-[12-(4-carboxyphenoxy)dodecanoylamino]butanoyl]amino]ethoxy]ethoxy]acetyl]amino]ethoxy]ethoxy]acetyl]amino]hexanoyl]-[Aib^8,Arg^34, Lys^37]-GLP-1-(7-37)-peptide] | 10.12 | 88 | 19 | 6.81 | 9.52 | 11.32 | 16
3 | CC[C@H](C)[C@H](NC(=O)[C@H](Cc1ccccc1)NC(=O)[C@H](CCC(=O)O)NC(=O)[C@H](CCCCNC(=O)[C@@H](N)CCCCNC(=O)COCCOCCNC(=O)CC[C@H](NC(=O)CC[C@H](NC(=O)CCCCCCCCCCCOc1ccc(C(=O)O)cc1)C(=O)O)C(=O)O)NC(=O)[C@H](C)NC(=O)[C@H](C)NC(=O)[C@H](CCC(N)=O)NC(=O)CNC(=O)[C@H](CCC(=O)O)NC(=O)[C@H](CC(C)C)NC(=O)[C@H](Cc1ccc(O)cc1)NC(=O)[C@H](CO)NC(=O)[C@H](CO)NC(=O)[C@@H](NC(=O)[C@H](CC(=O)O)NC(=O)[C@H](CO)NC(=O)[C@@H](NC(=O)[C@H](Cc1ccccc1)NC(=O)[C@@H](NC(=O)CNC(=O)[C@H](CCC(=O)O)NC(=O)C(C)(C)NC(=O)[C@@H](N)Cc1c[nH]cn1)[C@@H](C)O)[C@@H](C)O)C(C)C)C(=O)N[C@@H](C)C(=O)N[C@@H](Cc1c[nH]c2ccccc12)C(=O)N[C@@H](CC(C)C)C(=O)N[C@H](C(=O)N[C@@H](CCCNC(=N)N)C(=O)NCC(=O)N[C@@H](CCCNC(=N)N)C(=O)N[C@@H](CCCCNC(=O)[C@@H](N)CCCCNC(=O)COCCOCCNC(=O)CC[C@H](NC(=O)CC[C@H](NC(=O)CCCCCCCCCCCOc1ccc(C(=O)O)cc1)C(=O)O)C(=O)O)C(=O)O)C(C)C [Example 15, N^ε26-[(2S)-2-amino-6-[[2-[2-[2-[[(4S)-4-carboxy-4-[[(4S)-4-carboxy-4-[12-(4-carboxyphenoxy)dodecanoylamino]butanoyl]amino]butanoyl]amino]ethoxy]ethoxy]acetyl]amino]hexanoyl], N^ε37-[(2S)-2-amino-6-[[2-[2-[2-[[(4S)-4-carboxy-4-[[(4S)-4-carboxy-4-[12-(4-carboxyphenoxy)dodecanoylamino]butanoyl]amino]butanoyl]amino]ethoxy]ethoxy]acetyl]amino]hexanoyl]-[Aib^8,Arg^34,Lys^37]-GLP-1-(7-37)-peptide] | 9.49 | – | 20 | 6.52 | 9.46 | 11.43 | 93
4 | CC[C@H](C)[C@H](NC(=O)[C@H](Cc1ccccc1)NC(=O)[C@H](CCC(=O)O)NC(=O)[C@H](CCCCNC(=O)[C@@H](N)CCCCNC(=O)[C@@H](N)CCCCNC(=O)CC[C@H](NC(=O)CCCCCCCNC(=O)CCCCCCCCCOc1ccc(C(=O)O)cc1)C(=O)O)NC(=O)[C@H](C)NC(=O)[C@H](C)NC(=O)[C@H](CCC(N)=O)NC(=O)CNC(=O)[C@H](CCC(=O)O)NC(=O)[C@H](CC(C)C)NC(=O)[C@H](Cc1ccc(O)cc1)NC(=O)[C@H](CO)NC(=O)[C@H](CO)NC(=O)[C@@H](NC(=O)[C@H](CC(=O)O)NC(=O)[C@H](CO)NC(=O)[C@@H](NC(=O)[C@H](Cc1ccccc1)NC(=O)[C@@H](NC(=O)CNC(=O)[C@H](CCC(=O)O)NC(=O)C(C)(C)NC(=O)[C@@H](N)Cc1c[nH]cn1)[C@@H](C)O)[C@@H](C)O)C(C)C)C(=O)N[C@@H](C)C(=O)N[C@@H](Cc1c[nH]c2ccccc12)C(=O)N[C@@H](CC(C)C)C(=O)N[C@H](C(=O)N[C@@H](CCCNC(=N)N)C(=O)NCC(=O)N[C@@H](CCCNC(=N)N)C(=O)N[C@@H](CCCCNC(=O)[C@@H](N)CCCCNC(=O)[C@@H](N)CCCCNC(=O)CC[C@H](NC(=O)CCCCCCCNC(=O)CCCCCCCCCOc1ccc(C(=O)O)cc1)C(=O)O)C(=O)O)C(C)C [Example 26, N^ε26-[(2S)-2-amino-6-[[(2S)-2-amino-6-[[(4S)-4-carboxy-4-[8-[10-(4-carboxyphenoxy)decanoylamino]octanoylamino]butanoyl]amino]hexanoyl]amino]hexanoyl], N^ε37-[(2S)-2-amino-6-[[(2S)-2-amino-6-[[(4S)-4-carboxy-4-[8-[10-(4-carboxyphenoxy)decanoylamino]octanoylamino]butanoyl]amino]hexanoyl]amino]hexanoyl]-[Aib^8,Arg^34,Lys^37]-GLP-1-(7-37)-peptide] | – | 13 | 16 | 6.97 | 9.42 | – | –
